# Reference: patent US5482954A, “Signal transduction inhibitor triazole and diazole compounds” (priority 1994, dated 1996)
# Like-named read-outs stand apart in the source and are kept apart here.
# Legend:
# [1] = system: A2058 cells; test: Colony formation (soft agar); assay type: cell-based, human; settings: for COLONY FORMATION (% OF CONTROL): Table H, soft agar; for Colony Formation (% of Control): Table K
# Method: Colony formation: Compound 1 was evaluated at three concentrations for inhibition of colony formation in both the A2058 and OVCAR3 cell lines. Colony number was determined in triplicate and compared to the vehicle control run on each 24 well plate to provide a percent. Colonies greater than 60 cells were counted at 100× under phase contrast. […] In a second study, selected compounds were evaluated for their effect on density-independent growth of the A2058 cell line in soft agar. Percent inhibition was determined over triplicate experiments involving three log molar concentrations of the test compound.
# [2] = system: A2058 cells; test: Proliferation of A2058 cells (monolayer growth, crystal violet); assay type: cell-based, human; settings: for activity at 10 µM: Homo sapiens, read-out: GROWTH (% OF CONTROL)
# Method: For the clonogenic assay, aliquots of 50,000 cells per well (24 well plates) were grown under standard tissue culture conditions in the presence of increasing doses or test compound (0-10 μg/mL) or vehicle control. After 96 hr, the cells were gently washed with PBS, fixed, and stained with 0.5% crystal violet nuclear stain in 20% methanol. Excess stain was removed with tap water and bound stain was eluted with an equal volume solution of 01N sodium citrate (pH 4.2) and absolute ethanol. Optical density (O.D.) of eluted crystal violet stain was determined at 540 nm. The results of dose-dependent inhibition of tumor cell proliferation by compound 1 are shown in FIG. 5, in which the data are expressed as percent of untreated control cell proliferation for each cell type. The degree of inhibition varied with the cell type and was maximal (76%) for the A2058 cell line.
# A2058 human melanoma cells were used to test the effect of compounds 1 and 3-25 on cellular proliferation. The cells were cultured in the presence of the test compounds (10 μM) for 96 hr. fixed and stained with crystal violet as described above. Growth inhibition was determined as a percent of control growth (using either DMSO or PEG-400 as the vehicle) for each compound. Each experiment was run a minimum of three times and the average of the results for each compound is provided in Table H and in FIGS. 20A and 20B.
# [3] = system: CHOm5 cells; test: Carbachol-stimulated arachidonic acid release; assay type: cell-based, Chinese hamster; settings: Table K
# Text: This example illustrates the effect of selected compounds on the release of arachidonic acid from carbachol-stimulated CHOm5 cells. Carbachol is a muscarinic agonist which in the muscarinic receptor transfected CHO cells stimulates the activation of phospholipase A2, resulting in arachidonic acid release and metabolism. Downstream metabolites of arachidonic acid, prostaglandins and leukotrienes are also second messengers.
# The effect of compound 1 on arachidonic acid release from CHOm5 cells was determined by incubating the cells to isotopic equilibrium with labelled arachidonic acid, then washing the cells twice with 1 mL of serum-free media supplemented with 20 mM HEPES and 0.2% bovine serum albumin (fatty acid free) to trap the unincorporated labelled arachidonic acid, and then simultaneously adding carbachol (100 μM) and increasing concentrations of 1. After 15 min, the reaction was stopped by removing the incubation media which was then centrifuged at 10,000×g to eliminate any nonadherent cells.
# [4] = system: RMCE in platelets; settings: Merritt, et al.; cited from earlier work
# [5] = system: RMCE in endothelial cells; settings: Merritt, et al.; cited from earlier work
# [6] = system: RMCE in neutrophils; settings: Merritt, et al.; cited from earlier work
# [7] = system: voltage-gated L-type calcium channels in vascular smooth muscle cells; settings: patch clamp; Merritt, et al.; cited from earlier work
# [8] = system: CHOm5 cells; test: Carbachol-stimulated 45Ca2+ influx; assay type: cell-based, Chinese hamster; design: % Inhibition of 45Ca2+ Influx into CHOm5 Cells: concentration or dose not given beside the values; settings: Table I; carbachol-stimulated
# Method: (§1) Calcium influx was determined using two methods. The first method involved the use of ^45 Ca^2+, while the second method utilized a fluorescent intracellular calcium chelator, Fura-2. The method using Fura-2 is semi-quantitative and is preferred for kinetic analysis and screening whereas the ^45 Ca^2+ method is quantitative.
# CHOm5 cells in monolayer culture were washed free of serum-containing media and incubated with either carbachol or the calcium ionophore A23187 (from Molecular Probes, Eugene, Oreg., USA) in the presence of ^45 Ca^2+ and defined buffer (E2 medium with 0.1 mM MgCl2 and 1.0 mM CaCl2). After incubation for 5 min, the radioactive buffer was rapidly and repeatedly washed off with media containing LaCl3, a competitor of calcium efflux. The cell monolayer was solubilized and the calcium uptake was determined by scintillation counting.
# Stimulated uptake of radiolabelled calcium was measured as described above. The abbreviations CTL and CC are control and carbachol-stimulated calcium influx values. respectively.
# [9] = system: 5R ras-transfected rat embryo fibroblast cell line; test: Experimental pulmonary metastasis, tumor cells pretreated in vitro; assay type: in vivo, nude mice; settings: cells treated overnight, 1-10 μM; 10 d
# Method: This example illustrates the effect of selected compounds on the development of experimental pulmonary metastases, when the tumor cells are first incubated with the compound in vitro and subsequently injected into the tail vein of nude mice. In this example, both the 5R ras-transfected rat embryo fibroblast cell line and the HT-29 human colon cancer cell line were evaluated.
# The 5R ras-transfected rat embryo fibroblast cell line forms confluent pulmonary metastases within 2-3 weeks after inoculation. For the experimental metastasis assay, 5R cells were treated in culture overnight with the test compounds (1-10 μM). After culture, the cells were harvested, washed and injected into the tail vein of six-week old nude mice. After 10 d, the mice were humanely sacrificed and the lungs were removed and fixed in Bouin's solution. The visible pulmonary metastases were counted.
# [10] = system: A2058 cells; test: Ca2+ influx (receptor-operated); assay type: cell-based, human
# Method: as §1
# Additionally, CHOm5 cells and A2058-1F5 human melanoma cells adherent to glass coverslips, which had been precoated with collagen or poly-L lysine to promote adhesion, were loaded with the fluorescent intracellular calcium chelator, fura-2AM. This chelator penetrates cells where it is hydrolyzed to fura-2 which remains trapped in the cells. Excess fura-2AM is washed off the cells. Cells are studied in serum-free E2 media, containing known amounts of calcium and magnesium. The cells are subjected to treatment with carbachol (10 μM) with or without compounds 1 and 2, and with appropriate vehicle controls (DMSO or PEG-400) in a perifusion apparatus. This ligand is known to stimulate intracellular release of calcium and influx of extracellular calcium. Emitted light is measured at 510 nm after excitation at 340 and 380 nm, with the ratio of fluorescence of fura-2 being directly correlated with intracellular calcium concentrations.
# Stimulated uptake of radiolabelled calcium was measured as described above. […]
# [11] = system: signal transduction and tumor growth; test: Biological and biochemical assays, summary; assay type: cell-based; settings: summary of all assays
# Text: Compound 1 was inhibitory for the biological and biochemical assays.
# [12] = system: 5R ras-transfected rat embryo fibroblasts; test: AMF-stimulated cell motility; assay type: cell-based; settings: PT, 0.5 μg/ml for 2 hr
# Method: (§2) The cell motility assay has been described. See, Stracke et al., Biochem. Biophys. Res. Comm., 146:339-345 (1987). Cells from the A2058 human melanoma line which was maintained in subconfluent culture were harvested with trypsin-EDTA, and were allowed to recover for 1 hr at room temperature. Cells from the 5R H-ras transformed (diploid) rat embryo fibroblast line were harvested with 2 mM EDTA in PBS without divalent cations. Cells were resuspended in serum-free media containing 0.1% BSA. This DMEM/0.1% BSA was used as the control for all subsequent assays. The assays were performed in triplicate using a 48-well chemotaxis chamber with 8μ Nucleopore, type IV collagen-coated filters. The chambers were incubated at 37° C. for 4 hr, stained and placed onto glass slides with the original cell side up so that the cell pellet could be wiped from the surface. Cells that had migrated through the pores were trapped between glass and membrane and could be quantitated by laser densitometry.
# (§3) Compound 1 was preincubated with the cells for various periods of time, added at the start of the assay, or added later. Additionally, compound 1 remained present during the motility assay. The cells were assayed for their motile response to AMF. AMF stimulates random and directed locomotion of 5R ras-transfected rat embryo fibroblasts and A2058 human melanoma cells. […] Cell viability determined by trypan blue exclusion averaged greater than 96%. Cells exposed to various concentrations of compound 1 were tested for their response to AMF vs. control. Percent stimulated motility (in densitometer units) is defined as: […]
# (§4) (AMF stimulated-control)Compound 1 /(AMF stimulated-control)untreated
# [13] = system: A2058 human melanoma cells; test: AMF-stimulated cell motility; assay type: cell-based; settings: PT, 0.5 μg/ml for 2 hr
# Method: as §2, §3, §4
Compound,COLONY FORMATION (% OF CONTROL) [1],"activity at 10 µM ([2]; A2058, Table H, 10 μM, 96 hr)",other results
O=C(c1ccccc1)c1ccc(F)cc1 [Compound 18],93.0 ± 3.7 % OF CONTROL,94 ± 2%,–
O=C(c1ccc(Cl)cc1)c1c(Cl)cc(Cn2ccnc2)cc1Cl [Compound 7],–,66.5 ± 9%,Arachidonic Acid Release (% of Control) [3]: 92.6 ± 7 % of Control
NC(=O)c1nnn(Cc2cc(F)cc(F)c2)c1N [Compound 16],–,111 ± 8%,–
COc1ccc(CCCOC(Cn2ccnc2)c2ccc(OC)cc2)cc1 (stereo not shown) [Compound 2],–,–,inhibition of RMCE [4]: inhibits RMCE; inhibition of RMCE [5]: inhibits RMCE; inhibition of RMCE [6]: inhibits RMCE; block of voltage-gated L-type calcium channels [7]: blocks
O=C(O)c1nn[nH]c1C(=O)O [Compound 10],100 ± 3 % OF CONTROL,92.2 ± 4%,–
NC(=O)c1nnn(Cc2ccc(C(=O)c3ccccc3)cc2)c1N [Compound 8],93.4 ± 3 % OF CONTROL,92.7 ± 9%,Colony Formation (% of Control) [1]: 93.4 ± 3 % of Control; % Inhibition of 45Ca2+ Influx into CHOm5 Cells [8]: 0%; inhibition of pulmonary colonization [9]: 14%; Arachidonic Acid Release (% of Control) [3]: 100 ± 15 % of Control; inhibition of stimulated changes in intracellular calcium [10]: failed to inhibit; inhibition in the biological and biochemical assays [11]: did not inhibit any of the test assays
NC(=O)c1nnn(Cc2cccc(I)c2)c1N [Compound 14],–,89 ± 6%,–
O=C(c1ccccc1)c1ccc(Br)cc1 [Compound 20],95.0 ± 1.4 % OF CONTROL,97 ± 24%,–
NC(=O)c1nnn(Cc2cc(Cl)cc(Cl)c2)c1N [Compound 15],–,–,% Inhibition of 45Ca2+ Influx into CHOm5 Cells [8]: 0%
O=C(c1ccc(Cl)cc1)c1c(Cl)cc(CO)cc1Cl [Compound 26],100.3 ± 1.2 % OF CONTROL,101 ± 11%,% Inhibition of 45Ca2+ Influx into CHOm5 Cells [8]: ~ 10%
O=C(c1ccccc1)c1ccccc1 [Compound 17],95.9 ± 3 % OF CONTROL,–,"activity at 10 µM ([2]; A2058, 96 h): 98.5 ± 5%"
NC(=O)c1nnn(Cc2cccc(Br)c2)c1N [Compound 13],–,85.5 ± 13%,–
CC(=O)Nc1c(C(N)=O)nnn1Cc1cc(Cl)c(C(=O)c2ccc(Cl)cc2)c(Cl)c1 [Compound 4],10.3 ± 0.4 % OF CONTROL,53.7 ± 15%,Colony Formation (% of Control) [1]: 10.3 ± 0.4 % of Control; % Inhibition of 45Ca2+ Influx into CHOm5 Cells [8]: 41%; Arachidonic Acid Release (% of Control) [3]: 73.8 ± 5.9 % of Control
NC(=O)c1nnn(Cc2cccc(Cl)c2)c1N [Compound 12],–,85 ± 2%,–
NC(=O)c1nnn(Cc2cc(Cl)c(C(=O)c3ccc(Cl)cc3)c(Cl)c2)c1NC(=O)c1ccccc1 [Compound 5],9.97 ± 1 % OF CONTROL,39 ± 2%,Colony Formation (% of Control) [1]: 9.97 ± 1 % of Control; % Inhibition of 45Ca2+ Influx into CHOm5 Cells [8]: 61%; Arachidonic Acid Release (% of Control) [3]: 49.2 ± 12 % of Control
NC(=O)c1nnn(Cc2cccc(F)c2)c1N [Compound 11],–,89 ± 3%,–
O=C(c1ccccc1)c1ccc(Cl)cc1 [Compound 19],94.3 ± 3.1 % OF CONTROL,110 ± 12%,–
O=C(c1ccc(F)cc1)c1ccccc1F [Compound 24],–,82 ± 7%,–
O=C(c1ccccc1O)c1ccccc1O [Compound 25],95.3 ± 2 % OF CONTROL,98 ± 7%,–
O=C(c1ccc(F)cc1)c1ccccc1Cl [Compound 23],97.8 ± 5 % OF CONTROL,101 ± 0.5%,–
Nc1c(C(=O)O)nnn1Cc1cc(Cl)c(C(=O)c2ccc(Cl)cc2)c(Cl)c1 [Compound 6],9.00 ± 1 % OF CONTROL,45.3 ± 11%,Colony Formation (% of Control) [1]: 9.00 ± 1 % of Control; % Inhibition of 45Ca2+ Influx into CHOm5 Cells [8]: 38%; Arachidonic Acid Release (% of Control) [3]: 49.6 ± 5 % of Control
pertussis toxin [reference compound],–,–,inhibition of AMF-stimulated motility by pertussis toxin [12]: markedly inhibited; inhibition of AMF-stimulated motility by pertussis toxin [13]: markedly inhibited
O=C(c1ccccc1)c1ccccc1Cl [Compound 21],100 ± 5 % OF CONTROL,123 ± 5%,–
NC(=O)c1nnn(Cc2cc(Cl)c(C(=O)c3ccc(Cl)cc3)c(Cl)c2)c1NC=O [Compound 3],10.2 ± 0.5 % OF CONTROL,31.5 ± 7%,"Colony Formation (% of Control) [1]: 10.2 ± 0.5 % of Control; % Inhibition of 45Ca2+ Influx into CHOm5 Cells [8]: 60%; dose dependent inhibition of proliferation ([2]; FIG. 20A, monolayer growth): Dose dependent inhibition of proliferation; Arachidonic Acid Release (% of Control) [3]: 13.1 ± 3 % of Control"
NC(=O)c1nc[nH]c1N [Compound 9],–,97 ± 3%,–
